# pEC50, pIC50: −log10 of the molar value. Read-outs that look alike come from different tables or passages of the source.
# Legend:
# [1] = tested on: Axin2 accumulation in SW480 cells; test: Axin2 384 immunofluorescence assay; format: cell-based; conditions: Homo sapiens, read-out: Axin2 384 IF EC50
# [2] = tested on: total β-catenin in SW480 colorectal cells; test: Total β-catenin MSD 96-well plate assay for SW480 cells; conditions: Homo sapiens, SW480, read-out: SW480-Total beta-catenin (TBC) IC50 IP
# [3] = biological target: PARP1 (Homo sapiens (Human), UniProt P09874); test: PARP1 biochemical assay (Trevigen kit)
# Description: PARP1 biochemical assay was purchased as a kit from Trevigen (cat.#4676-096-K) and used per manufacturers recommendations.
# [4] = biological target: PARP2 (Homo sapiens (Human), UniProt Q9UGN5); test: PARP2 biochemical assay (BPS kit)
# [5] = biological target: 6×HIS-tankyrase 2 (946-1162) (Homo sapiens (Human), UniProt Q9H2K2); test: Tankyrase 2 biochemical assay (AlphaLisa, PARsylation); conditions: 250 nM NAD; read-out: TNKS2 IC50
# Chain of 6×HIS-tankyrase 2 (946-1162) (Q9H2K2 946-1162): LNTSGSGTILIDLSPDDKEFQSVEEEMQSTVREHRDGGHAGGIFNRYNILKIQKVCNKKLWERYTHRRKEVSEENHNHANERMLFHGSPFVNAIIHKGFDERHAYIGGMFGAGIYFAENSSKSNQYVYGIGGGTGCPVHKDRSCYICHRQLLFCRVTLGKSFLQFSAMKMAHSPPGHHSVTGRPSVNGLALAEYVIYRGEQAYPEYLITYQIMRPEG
# Chain of PARP1 (P09874 whole entry): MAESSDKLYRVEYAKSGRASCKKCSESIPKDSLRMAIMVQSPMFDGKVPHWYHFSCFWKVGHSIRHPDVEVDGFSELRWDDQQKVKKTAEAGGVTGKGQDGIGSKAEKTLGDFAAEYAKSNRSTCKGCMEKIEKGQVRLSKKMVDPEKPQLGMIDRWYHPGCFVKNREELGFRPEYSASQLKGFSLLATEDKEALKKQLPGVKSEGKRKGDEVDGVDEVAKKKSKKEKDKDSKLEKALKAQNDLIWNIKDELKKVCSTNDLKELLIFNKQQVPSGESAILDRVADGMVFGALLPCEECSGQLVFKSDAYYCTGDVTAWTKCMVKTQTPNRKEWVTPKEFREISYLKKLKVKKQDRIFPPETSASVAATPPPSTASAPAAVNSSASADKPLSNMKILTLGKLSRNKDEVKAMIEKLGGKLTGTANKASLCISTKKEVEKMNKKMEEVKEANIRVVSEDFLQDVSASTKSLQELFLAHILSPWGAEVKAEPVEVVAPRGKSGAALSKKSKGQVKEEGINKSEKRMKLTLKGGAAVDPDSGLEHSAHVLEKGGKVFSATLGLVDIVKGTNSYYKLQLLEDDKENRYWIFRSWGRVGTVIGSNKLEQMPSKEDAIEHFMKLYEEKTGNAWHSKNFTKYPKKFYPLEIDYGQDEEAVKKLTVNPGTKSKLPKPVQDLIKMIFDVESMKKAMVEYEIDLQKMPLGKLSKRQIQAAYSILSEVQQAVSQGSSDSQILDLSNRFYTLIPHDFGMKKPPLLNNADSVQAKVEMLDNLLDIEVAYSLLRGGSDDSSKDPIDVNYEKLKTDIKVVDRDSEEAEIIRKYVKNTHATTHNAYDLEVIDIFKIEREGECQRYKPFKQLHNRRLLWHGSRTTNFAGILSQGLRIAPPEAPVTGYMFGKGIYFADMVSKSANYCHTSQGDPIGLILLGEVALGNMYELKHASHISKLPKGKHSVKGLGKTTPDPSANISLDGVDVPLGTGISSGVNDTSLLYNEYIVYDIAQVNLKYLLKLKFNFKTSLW
# Chain of PARP2 (Q9UGN5 whole entry): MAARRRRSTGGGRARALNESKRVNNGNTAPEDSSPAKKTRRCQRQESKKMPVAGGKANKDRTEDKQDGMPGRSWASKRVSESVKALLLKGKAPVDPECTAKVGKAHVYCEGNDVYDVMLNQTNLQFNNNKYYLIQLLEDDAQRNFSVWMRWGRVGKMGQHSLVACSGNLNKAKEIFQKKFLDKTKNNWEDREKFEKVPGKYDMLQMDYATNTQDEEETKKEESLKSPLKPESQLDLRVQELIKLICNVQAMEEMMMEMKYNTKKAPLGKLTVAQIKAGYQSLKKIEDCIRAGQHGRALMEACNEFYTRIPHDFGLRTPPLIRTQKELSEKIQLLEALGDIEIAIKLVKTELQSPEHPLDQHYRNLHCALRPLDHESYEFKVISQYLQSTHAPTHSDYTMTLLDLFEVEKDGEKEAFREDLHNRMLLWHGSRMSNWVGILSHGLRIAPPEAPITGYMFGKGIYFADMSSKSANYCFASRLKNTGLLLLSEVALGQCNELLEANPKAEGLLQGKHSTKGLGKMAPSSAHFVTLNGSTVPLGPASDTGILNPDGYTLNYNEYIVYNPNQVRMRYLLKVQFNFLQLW
Structure (SMILES),"pEC50 ([1]; SW480, 24 h)",pIC50 [2],pIC50 [3],"pEC50 ([1]; SW480 cells, 24 hours)",pIC50 [4],pIC50 [5]
"O=C1Nc2cc(Cl)ccc2C1C1CCN(C(=O)CCCc2nc3ccccc3c(=O)[nH]2)CC1 (racemic) [Example 76, 2-(4-(4-((3S)-6-chloro-2-oxo-2,3-dihydro-1H-indol-3-yl)-1-piperidinyl)-4-oxobutyl)-4(3H)-quinazolinone trifluoroacetic acid and 2-(4-(4-((3R)-6-chloro-2-oxo-2,3-dihydro-1H-indol-3-yl)-1-piperidinyl)-4-oxobutyl)-4(3H)-quinazolinone trifluoroacetic acid]",5.53,5.52,,,,
"O=C(CCc1nc2ccccc2c(=O)[nH]1)N[C@H]1CC[C@H](c2nnc(-c3ccccc3)o2)CC1 [Example 2, 3-(4-oxo-3,4-dihydro-2-quinazolinyl)-N-(trans-4-(5-phenyl-1,3,4-oxadiazol-2-yl)cyclohexyl)propanamide]",,7.10,5.57,6.19,6.01,
"COc1ccc2c(c1)[nH]c(=O)n2C1CCN(C(=O)CCCc2nc3ccccc3c(=O)[nH]2)CC1 [Example 8, 2-(4-(4-(5-methoxy-2-oxo-2,3-dihydro-1H-benzimidazol-1-yl)-1-piperidinyl)-4-oxobutyl)-4(3H)-quinazolinone]",,7.34,,7.09,,
"O=C(CCCc1nc2ccccc2c(=O)[nH]1)N[C@H]1CC[C@H](c2nnc(-c3ccccc3)o2)CC1 [Example 10, 4-(4-oxo-3,4-dihydro-2-quinazolinyl)-N-(trans-4-(5-phenyl-1,3,4-oxadiazol-2-yl)cyclohexyl)butanamide]",,7.78,,7.13,,
"O=C(CCCc1nc2ccccc2c(=O)[nH]1)N[C@H]1CC[C@H](c2nnc(-c3ccc(F)cc3)o2)CC1 [Example 28, N-(trans-4-(5-(4-fluorophenyl)-1,3,4-oxadiazol-2-yl)cyclohexyl)-4-(4-oxo-3,4-dihydro-2-quinazolinyl)butanamide]",,7.80,,7.73,5.75,9.52
"O=C(CCc1cc(=O)n2ccccc2n1)N[C@H]1CC[C@H](c2nnc(-c3ccccc3)o2)CC1 [Example 38, 3-(4-oxo-4H-pyrido[1,2-a]pyrimidin-2-yl)-N-((1r,4r)-4-(5-phenyl-1,3,4-oxadiazol-2-yl)cyclohexyl) propanamide]",,5.84,,5.09,,
"O=C(CCCc1nc2ccccc2c(=O)[nH]1)N[C@H]1CC[C@H](Oc2ccccc2)C1 [Example 65, 4-(4-oxo-3,4-dihydroquinazolin-2-yl)-N-((1S,3S)-3-phenoxycyclopentyl)butanamide+4-(4-oxo-3,4-dihydroquinazolin-2-yl)-N-((1R,3R)-3-phenoxycyclopentyl)butanamide]",,< 5.00,,,,
"O=C(CCCc1nc2ccccc2c(=O)[nH]1)N1CCN(c2noc3ccccc23)CC1 [Example 71, 2-(4-(4-(benzo[d]isoxazol-3-yl)piperazin-1-yl)-4-oxobutyl)quinazolin-4(3H)-one trifluoroacetic acid]",,5.46,,5.38,,
"O=C(CCCc1nc2ccccc2c(=O)[nH]1)N1CCC(c2noc3ccc(F)cc23)CC1 [Example 72, 2-(4-(4-(5-fluorobenzo[d]isoxazol-3-yl)piperidin-1-yl)-4-oxobutyl)quinazolin-4(3H)-one trifluoroacetic acid]",,5.95,,6.20,,
"O=C(CCCc1nc2ccccc2c(=O)[nH]1)N[C@H]1CC[C@H](n2c(=O)[nH]c3ccccc32)CC1 [Example 73, N-((1r,4r)-4-(2-oxo-2,3-dihydro-1H-benzo[d]imidazol-1-yl)cyclohexyl)-4-(4-oxo-3,4-dihydroquinazolin-2-yl)butanamide trifluoroacetic acid]",7.53,7.68,,,,
"O=C(CCCc1nc2ccccc2c(=O)[nH]1)N1CCC(n2nnc3ccccc32)CC1 [Example 75, 2-(4-(4-(1H-benzo[d][1,2,3]triazol-1-yl)piperidin-1-yl)-4-oxobutyl)quinazolin-4(3H)-one trifluoroacetic acid]",,6.21,,6.42,,
O=C(CCc1nc2ccccc2c(=O)[nH]1)N[C@H]1CC[C@H](n2c(=O)oc3ccccc32)CC1 [Example 80],,7.37,,6.65,,
"O=C(CCc1nc2ncccc2c(=O)[nH]1)N[C@H]1CC[C@H](c2nnc(-c3ccccc3)o2)CC1 [Example 81, 3-(4-oxo-3,4-dihydropyrido[2,3-d]pyrimidin-2-yl)-N-((1r,4r)-4-(5-phenyl-1,3,4-oxadiazol-2-yl)cyclohexyl) propanamide]",,5.71,,5.06,5.07,
"O=C(CCc1nc2c(c(=O)[nH]1)CCCN2)N[C@H]1CC[C@H](c2nnc(-c3ccccc3)o2)CC1 [Example 88, 3-(4-oxo-3,4,5,6,7,8-hexahydropyrido[2,3-d]pyrimidin-2-yl)-N-((1r,4r)-4-(5-phenyl-1,3,4-oxadiazol-2-yl)cyclohexyl)propanamide]",,5.99,5.46,,6.28,
"O=C(CSc1nc2ccccc2c(=O)[nH]1)N[C@H]1CC[C@H](c2nnc(-c3ccccc3)o2)CC1 [Example 96, 2-((4-oxo-3,4-dihydroquinazolin-2-yl)thio)-N-((1r,4r)-4-(5-phenyl-1,3,4-oxadiazol-2-yl)cyclohexyl) acetamide]",,7.04,4.54,6.27,5.80,
"O=C(CSc1nc2ccccc2c(=O)[nH]1)N[C@H]1CC[C@H](Oc2ccc(F)cc2)CC1 [Example 99, N-((1r,4r)-4-(4-fluorophenoxy)cyclohexyl)-2-((4-oxo-3,4-dihydroquinazolin-2-yl)thio) acetamide]",,5.62,,5.67,,
"O=C(CCSc1nc2ccccc2c(=O)[nH]1)N[C@H]1CC[C@H](Oc2ccc(F)cc2)CC1 [Example 100, N-((1r,4r)-4-(4-fluorophenoxy)cyclohexyl)-3-((4-oxo-3,4-dihydroquinazolin-2-yl)thio) propanamide]",,7.78,,7.64,5.31,
"O=C(CCSc1nc2ccccc2c(=O)[nH]1)N[C@H]1CC[C@H](Oc2ccc(Cl)cc2)CC1 [Example 105, N-((1r,4r)-4-(4-chlorophenoxy)cyclohexyl)-3-((4-oxo-3,4-dihydroquinazolin-2-yl)thio) propanamide]",,7.70,< 4.07,7.44,,
N#Cc1cccc(O[C@H]2CC[C@H](NC(=O)CCSc3nc4ccccc4c(=O)[nH]3)CC2)c1 [Example 109],,7.32,< 4.07,7.29,< 3.77,
"O=C(CCSc1nccc(=O)[nH]1)N[C@H]1CC[C@H](c2nnc(-c3ccccc3)o2)CC1 [Example 123, 3-((6-oxo-1,6-dihydropyrimidin-2-yl)thio)-N-((1r,4r)-4-(5-phenyl-1,3,4-oxadiazol-2-yl)cyclohexyl)propanamide]",,5.67,< 4.07,5.48,< 3.77,
"O=C(CCSc1nc2ccccc2c(=O)[nH]1)N[C@H]1CC[C@H](c2nnc(-c3ccncc3)o2)CC1 [Example 124, 3-((4-oxo-3,4-dihydroquinazolin-2-yl)thio)-N-(trans-4-(5-(pyridin-4-yl)-1,3,4-oxadiazol-2-yl)cyclohexyl)propanamide]",,8.72,,9.18,,
"O=C(CCc1nc2ccccc2c(=O)[nH]1)N[C@H]1CC[C@H](c2nnc(-c3ccccc3F)o2)CC1 [Example 126, N-((1r,4r)-4-(5-(2-fluorophenyl)-1,3,4-oxadiazol-2-yl)cyclohexyl)-3-(4-oxo-3,4-dihydroquinazolin-2-yl)propanamide]",,,5.29,,,
"O=C(CCc1nc2ccccc2c(=O)[nH]1)N[C@H]1CC[C@H](c2nnc(-c3ccncc3)o2)CC1 [Example 132, 3-(4-oxo-3,4-dihydroquinazolin-2-yl)-N-((1r,4r)-4-(5-(pyridin-4-yl)-1,3,4-oxadiazol-2-yl)cyclohexyl)propanamide]",,6.31,5.61,,5.58,
"O=C(CCc1nc2ccccc2c(=O)[nH]1)N[C@H]1CC[C@H](c2nnc(-c3ncccn3)o2)CC1 [Example 133, 3-(4-oxo-3,4-dihydroquinazolin-2-yl)-N-((1r,4r)-4-(5-(pyrimidin-2-yl)-1,3,4-oxadiazol-2-yl)cyclohexyl)propanamide]",,< 5.00,5.34,,5.73,
"N#Cc1ccc(-c2nnc([C@H]3CC[C@H](NC(=O)CCc4nc5ccccc5c(=O)[nH]4)CC3)o2)cc1 [Example 134, N-((1r,4r)-4-(5-(4-cyanophenyl)-1,3,4-oxadiazol-2-yl)cyclohexyl)-3-(4-oxo-3,4-dihydroquinazolin-2-yl)propanamide]",,6.60,,,5.68,7.85
"O=C(CCc1nc2ccccc2c(=O)[nH]1)N[C@H]1CC[C@H](c2nnc(C3CCOCC3)o2)CC1 [Example 135, 3-(4-oxo-3,4-dihydroquinazolin-2-yl)-N-((1r,4r)-4-(5-(tetrahydro-2H-pyran-4-yl)-1,3,4-oxadiazol-2-yl)cyclohexyl)propanamide]",,< 5.00,,,,
"O=C(CCc1nc2ccccc2c(=O)[nH]1)N[C@H]1CC[C@H](c2nnc(C3CCCCC3)o2)CC1 [Example 138, N-((1r,4r)-4-(5-cyclohexyl-1,3,4-oxadiazol-2-yl)cyclohexyl)-3-(4-oxo-3,4-dihydroquinazolin-2-yl)propanamide]",,,5.26,< 4.60,5.58,
"O=C(CCc1nc2ccccc2c(=O)[nH]1)N[C@H]1CC[C@H](c2nnc(-c3ccc(Cl)cc3)o2)CC1 [Example 141, N-((1r,4r)-4-(5-(4-chlorophenyl)-1,3,4-oxadiazol-2-yl)cyclohexyl)-3-(4-oxo-3,4-dihydroquinazolin-2-yl)propanamide]",,6.93,,6.64,6.17,

# Reference: patent US9505749B2, “Quinazolinone compounds and derivatives thereof” (AMGEN INC., priority 2012, dated 2016)
